Reference: US20080194678A1, “Process To Obtain Synthetic And Semi-Synthetic Lignan Derivatives, Their Antiparasitic Activities And Corresponding Pharmaceutical Formulations, Including The Therapeutic Method Using Said Lignan For The Treatment Of Parasitosis” (Fundacao de Amparo a Pesquissa do Estado de Aao Pa, priority 2005, published 2008)
“Also recorded” adds a separate entry of the source. Read-outs that look alike come from different tables or passages of the source.

Tests used:
S. mansoni [1] = experiment: Couples of S. mansoni recovered from infected BALB/c mice by perfusion after treatment; assay type: in vivo, Schistosoma mansoni; details: for number of S. mansoni recovered / couples of S. mansoni recovered in the treated group / efficacy: BALB/c mice; for number of S. mansoni recovered / efficacy: single dose 10 mg/kg after 40 days of infection; for couples of S. mansoni recovered in the treated group: single dose 10 mg/kg after 40 days of infection (approx. 200 cercariae), untreated group 40 couples/animal; for reduction of the viable worms: 10 mg/kg of weight, after 40 days of infection with S. mansoni
Experimental: FIG. 8—graph with the number of recovered worms vs. effect of the drug. Couples of S. mansoni recovered from BALB/c mice by perfusion of the door-kidney system. Five mice, after 40 days of infection (approximately 200 cercariae), were submitted to test with a single dose of the drug dinitrocubebine (10 mg/kg of weight). In the group untreated (negative control treated only with a 5% dimethyl sulfoxide solution in water), 40 couples/animal were recovered. In the treated group, only 5 couples were recovered. […] FIG. 9—graph with the number of recovered worms vs. effect of the drug. Couples of S. mansoni recovered from BALB/c mice by perfusion of the door-kidney system. Five mice, after 40 days of infection (approximately 200 cercariae), were submitted to test with a single dose of the drug methylcubebin (10 mg/kg of weight). In the untreated group (negative control treated only with a 5% dimethyl sulfoxide solution in water), 40 couples/animal were recovered. In the treated group, only five couples were recovered. […] In in vivo tests, the drugs (−)—O-methylcubebin (6) and (−)-6,6′-dinitronokinin (8) presented results similar to the obtained with praziquantel, in the same concentration (10 mg/kg of weight), i.e. reduction of approximately 90% of the viable worms, after 40 days of infection with S. mansoni. […] Such a result was extremely important and promising, since the drug was given to the parasites when they were still maturing and had not yet reached the evolutive form of adult worms. […] Thus, the developed medicine may be used not only as a healing drug, but also as a prophylactic drug in the combat against schistosomosis. Another advantage relates to the low toxicity of these substances for use in antiparasitic therapeutics, since many of these derivatives have hepatic-protecting and antioxidant action. Thus, the use of these lignans certainly offers higher safety for therapeutic use than praziquantel. So, the use of these substances in medicines for longer treatments is safer than with praziquantel and they have nearly no significant side effects. Finally, this group of substances is obtained from natural sources, which is not applicable to praziquantel.

Schistosoma [2] = experiment: Schistosomicidal activity (test not specified)
[3] = tested on: Schistosoma mansoni (evolutive stage of adult worm); experiment: In vitro culture of Schistosoma mansoni adult worm couples (motility, separation, egglaying, tegument, death); assay type: cell-based; details: for time to considerable increase in the motility of parasite couples / time to separation of parasite couples: 14.0 and 7.0 μg/ml; for change in tegument or death of parasites: worms analyzed for 5 days
Experimental: FIG. 1—effect of the drugs (−)-hinokinin (3) and (−)-O—(N,N-dimethylamino-ethyl) cubebin (4), in concentrations of 14, 7.5 and 3.5 μg/ml, under the parasite Schistosoma mansoni's egglaying during 5 days of culture.
FIG. 2—effect of the drug (−)-6,6-dinitroinokinin (8), in concentrations of 14, 7.5 and 3.5 μg/ml, under the parasite Schistosoma mansoni's egglaying during 5 days of culture.
FIG. 3—effect of the drug (−)—O-methylcubebin (5), in concentrations of 14, 7.5 and 3.5 μg/ml, under the parasite Schistosoma mansoni's egglaying during 5 days of culture
FIG. 4—parasite Schistosoma mansoni (evolutive stage of adult worm) cultivated in vitro in RPMI 1640 medium, in 5% CO2 atmosphere at 37° C. for 24 hours, in the absence and presence of the drug (−)-6,6-dinitroinokinin (8). A and C, male and female parasites, respectively, cultivated in the absence of substances. B and D, male and female parasite, respectively, cultivated in the presence of the Drug (the same effect was noticed in concentrations of 14.0, 7.0 and 3.0 μg/ml) Inverted light microscope, 4× magnification.
Two hours after the addition of substances 3 and 5 in concentrations of 14.0 and 7.0 μg/ml, considerable increase in the motility of parasite couples was noticed, ending up with their separation after 18 hours.

[4] = tested on: Schistosoma mansoni (evolutive stage of adult worm); experiment: as above; assay type: cell-based; details: 14.0, 7.0 and 3.5 μg/ml
S. mansoni [5] = experiment: Couples of S. mansoni recovered from infected BALB/c mice by perfusion after treatment; assay type: in vivo, Schistosoma mansoni; details: after 7 and 21 days of infection
Schistosoma [6] = details: cited from earlier work; for side effects: patients
S. mansoni [7] = details: vertebrate host; cited from earlier work
[8] = 3.5 μg/ml, after 24 hours of culture

O=[N+]([O-])c1cc2c(cc1CC1COC(O)C1Cc1cc3c(cc1[N+](=O)[O-])OCO3)OCO2 (single isomer, unassigned; (-)) [8a, (−)-6,6′-dinitrocubebin]
number of S. mansoni recovered (S. mansoni [1]): about 10% | couples of S. mansoni recovered in the treated group (S. mansoni [1]): 5 couples | schistosomicidal activity (Schistosoma [2]): significant schistosomicidal activity

CC(=O)OC1OC[C@H](Cc2ccc3c(c2)OCO3)[C@H]1Cc1ccc2c(c1)OCO2 (single isomer, unassigned; (-)) [compound 4, (−)-O-acetylcubebin]
schistosomicidal activity (Schistosoma [2]): significant schistosomicidal activity

CN(C)CCOC1OCC(Cc2ccc3c(c2)OCO3)C1Cc1ccc2c(c1)OCO2 (single isomer, unassigned; (-)) [compound 5, (−)-O—(N,N-dimethylaminoethyl)-cubebin]
time to increase in the motility of couples ([3]; 3.5 μg/ml): 24 h | time to separation of the couples ([3]; 3.5 μg/ml): 36 h | effect on egglaying [3, 8]: considerable reduction of egglaying | time to considerable increase in the motility of parasite couples [3]: Two | time to separation of parasite couples [3]: 18 h | change in tegument or death of parasites ([3]; 14.0, 7.0 and 3.5 μg/ml): no apparent change in tegument or death of parasites | schistosomicidal activity (Schistosoma [2]): significant schistosomicidal activity

COC1OC[C@@H](Cc2ccc3c(c2)OCO3)[C@@H]1Cc1ccc2c(c1)OCO2 (single isomer, unassigned; (-)) [compound 6, (−)-O-methylcubebin]
increase in motility of couples ([3]; 14, 7.5 and 3.5 μg/ml): increased the motility of couples after the first hour of culture | time to separation of the parasites ([3]; 14, 7.5 and 3.5 μg/ml): ≤ 12 h | reduction of the viable worms (S. mansoni [1]): approximately 90% | efficacy (S. mansoni [1]): around 93% | number of S. mansoni recovered (S. mansoni [1]): about 10% | couples of S. mansoni recovered in the treated group (S. mansoni [1]): five | schistosomicidal activity (Schistosoma [2]): significant schistosomicidal activity | tegument (cutaneous) lesions in male and female parasites [4]: did not produce cutaneous lesions | reduction of the viable worms (S. mansoni [5]; two doses 10 mg/kg of weight): approximately 90% | action on intermediary forms of the parasite (schistosomulus) in the vertebrate host (S. mansoni [5]; two doses 10 mg/kg): also acts on the intermediary forms of the parasite (schistosomulus)

c1ccc(COC2OC[C@@H](Cc3ccc4c(c3)OCO4)[C@@H]2Cc2ccc3c(c2)OCO3)cc1 (single isomer, unassigned; (-)) [compound 7, (−)-O-benzylcubebin]
schistosomicidal activity (Schistosoma [2]): significant schistosomicidal activity

Nc1cc2c(cc1CC1COC(=O)C1Cc1cc3c(cc1N)OCO3)OCO2 (single isomer, unassigned; (-)) [compound 9, (−)-6,6′-diaminonokinin]
schistosomicidal activity (Schistosoma [2]): significant schistosomicidal activity

COc1ccc([C@H]2O[C@@H](c3ccc(OC)c(OC)c3)[C@H](C)[C@@H]2C)cc1OC [14b, galgravin]
schistosomicidal activity (Schistosoma [2]): significant schistosomicidal activity

COc1cc([C@H]2O[C@@H](c3ccc(OC)c(OC)c3)[C@H](C)[C@@H]2C)ccc1O [14c, nectandrin A]
schistosomicidal activity (Schistosoma [2]): significant schistosomicidal activity

COc1cc([C@H]2O[C@@H](c3ccc(O)c(OC)c3)[C@H](C)[C@@H]2C)ccc1O [14d, nectandrin B]
schistosomicidal activity (Schistosoma [2]): significant schistosomicidal activity

COc1ccc([C@H]2O[C@@H](c3ccc(OC)c(OC)c3)[C@H](C)[C@H]2C)cc1OC [15b, veragensin]
schistosomicidal activity (Schistosoma [2]): significant schistosomicidal activity

COc1ccc([C@H]2O[C@H](c3ccc(OC)c(OC)c3)[C@@H](C)[C@H]2C)cc1OC [16a, ganschisandrin]
schistosomicidal activity (Schistosoma [2]): significant schistosomicidal activity

CC(C)NCC1CCc2cc(CO)c([N+](=O)[O-])cc2N1 (stereo not shown) [Oxamniquin, oxamniquin]
cases in which the drug is effective (Schistosoma [6]; adults): about 80% | cases in which the drug is effective (Schistosoma [6]; children): ~65% | side effects (Schistosoma [6]): cephalgia, sleepiness, nausea, tremors and rarely convulsions

COc1ccc(C[C@H]2C(=O)OC[C@@H]2Cc2ccc3c(c2)OCO3)cc1OC [compound 1, (−)-methylpluviatolide]
schistosomicidal activity (Schistosoma [2]): significant schistosomicidal activity

O[C@H]1OC[C@H](Cc2ccc3c(c2)OCO3)[C@H]1Cc1ccc2c(c1)OCO2 [compound 2, (−)-cubebin]
schistosomicidal activity (Schistosoma [2]): significant schistosomicidal activity

O=C1OC[C@H](Cc2ccc3c(c2)OCO3)[C@H]1Cc1ccc2c(c1)OCO2 [compound 3, (−)-hinokinin]
time to increase in the motility of couples ([3]; 3.5 μg/ml): 24 h | time to separation of the couples ([3]; 3.5 μg/ml): 36 h | effect on egglaying [3, 8]: considerable reduction of egglaying | time to considerable increase in the motility of parasite couples [3]: Two | time to separation of parasite couples [3]: 18 h | change in tegument or death of parasites ([3]; 14.0, 7.0 and 3.5 μg/ml): no apparent change in tegument or death of parasites | schistosomicidal activity (Schistosoma [2]): significant schistosomicidal activity

O=C1OC[C@H](Cc2cc3c(cc2[N+](=O)[O-])OCO3)[C@H]1Cc1cc2c(cc1[N+](=O)[O-])OCO2 [compound 8, (−)-6,6′-dinitroinokinin]
time to death of parasites ([3]; 3.5 μg/ml): 36 h | time to death of parasites ([3]; 7.0 μg/ml): 24 h | time to death of parasites ([3]; 14.0 μg/ml): 20 h | death of the parasites ([3]; 14.0, 7.0 and 3.5 μg/ml): causing their death | increase in motility of couples ([3]; 14, 7.5 and 3.5 μg/ml): considerable increase in motility in the first hour of culture | time to separation of the parasites ([3]; 14, 7.5 and 3.5 μg/ml): 12 h | effect on egglaying ([3]; 14, 7.5 and 3.5 μg/ml, after separation): interruption in egglaying | reduction of the viable worms (S. mansoni [1]): approximately 90% | efficacy (S. mansoni [1]): around 90% | schistosomicidal activity (Schistosoma [2]): significant schistosomicidal activity | tegument (cutaneous) lesions in male and female parasites [4]: strong tegument lesions in both male and female parasites; also recorded: very evident tegument lesions

COc1cc(OC)c([C@H]2[C@H](C)[C@@H](c3cc(OC)c(OC)cc3OC)O[C@H]2C)cc1OC [compound 17, magnosalicin]
schistosomicidal activity (Schistosoma [2]): significant schistosomicidal activity

O=C(C1CCCCC1)N1CC(=O)N2CCc3ccccc3C2C1 (stereo not shown) [praziquantel]
reduction of the viable worms (S. mansoni [1]): approximately 90% | evolutive form of S. mansoni acted on (S. mansoni [7]): acts only on the evolutive form of adult worms | side effects (Schistosoma [6]): abdominal pain, diarrhea, fever and urticaria-shaped reactions

aristolignine [15c]
schistosomicidal activity (Schistosoma [2]): significant schistosomicidal activity

caloptin [15a]
schistosomicidal activity (Schistosoma [2]): significant schistosomicidal activity

machilin [14a]
schistosomicidal activity (Schistosoma [2]): significant schistosomicidal activity

morelensine [1a]
schistosomicidal activity (Schistosoma [2]): significant schistosomicidal activity

nectandrin D [16b]
schistosomicidal activity (Schistosoma [2]): significant schistosomicidal activity

nectandrin E [16c]
schistosomicidal activity (Schistosoma [2]): significant schistosomicidal activity
